These results are taken from patent EP4722228A1, “NEW COMPOUND TARGETING MUSK AND USE THEREOF” (The University of Tokyo, priority 2023, dated 2024).

What all share (format): in vivo
Test [1] concerns rat PTMG model using anti-acetylcholine receptor monoclonal antibody (mAb35). Briefly: Wire-hang Test (Hanging Wire Test) in rat PTMG model. The note with it: approx. 30 hours after antibody. On the procedure:
(§1) 5-week-old female rats (n=20, LEW/CrlCrlj, 4 weeks old when carried in, Jackson Laboratory Japan) were divided into four groups (Group A, Group B, Group C, and Group D) using body weight measurement results as indexes. Vehicle was administered to Group A, and the test compound MuSK7-pal dissolved in vehicle was administered intravenously to each of Group B (3 mg/kg), Group C (2 mg/kg), and Group D (1 mg/kg) (Day 0). Two hours after intravenous administration, an anti-nicotinic acetylcholine receptor monoclonal antibody (mAb35, National Hospital Organization Nagasaki Kawatana Medical Center) dissolved in PBS (pH 7.4) as a drug for inducing the pathology of myasthenia gravis was administered intraperitoneally to all animals at 200 µg/rat (Day 0). The vehicle, which was a solvent of the compound, was phosphate-buffered saline (PBS) at pH 7.4 containing 20% hydroxypropyl-β-cyclodextrin and 0.02% polysorbate 80 (the same applies to Example 3(2)).
Approximately 30 hours after antibody administration, the muscle strength of the rats was measured using a lid (made of wire mesh) of a lidded plastic cage (Clean 200-TPX cage; CL-0108-2, CLEA Japan, Inc.). Specifically, the rats were left for 15 minutes or longer, and after confirming that they were in a resting state, they were placed on the cage lid. Next, the cage lid was lightly shaken about three times so that the rats would grasp the cage lid, and the cage lid was turned upside down. The inverted lid was held at a height (about 60 cm from the floor), which was high enough to prevent the rats from getting down easily but low enough not to injure them if they fell. The latency until the rats fell from the cage lid was measured for up to 120 seconds.
as §1, with “(n=24,” for “(n=20,”, “(0.5” for “(3”, “(0.25” for “(2”, “(0.1” for “(1”, “0).” for “0). The vehicle, which was a solvent of the compound, was phosphate-buffered saline (PBS) at pH 7.4 containing 20% hydroxypropyl-β-cyclodextrin and 0.02% polysorbate 80 (the same applies to Example 3(2)).”
The Wire-hang Test was performed approximately 30 hours after antibody administration. The implementation procedure was the same as that in (1) B above.
(§2) 5-week-old female rats (LEW/CrlCrlj, 4 weeks old when carried in, Jackson Laboratory Japan) were divided into three groups (Group A, Group B, and Group C) using body weight measurement results as indexes. The test compound (tetramer of Ub012 (EAAAK)3) dissolved in vehicle was administered intravenously to Group A (5 mg/kg) (n=5), the test compound (tetramer of Ub012(ΔGG) (EAAAK)3) dissolved in vehicle was administered intravenously to Group B (5 mg/kg) (n=5), and vehicle was administered intravenously to Group C (n=5), respectively (Day 0). Two hours after intravenous administration, an anti-nicotinic acetylcholine receptor monoclonal antibody (mAb35, National Hospital Organization Nagasaki Kawatana Medical Center) dissolved in PBS (pH 7.4) as a drug for inducing the pathology of myasthenia gravis was administered intraperitoneally to all animals at 200 µg/rat (Day 0).
The Wire-hang Test was performed approximately 30 hours after antibody administration. The implementation procedure was the same as that in Example 3(1) B.

For test [2] the test system is unchanged. Kind of test: Body weight change in rat PTMG model (myasthenia gravis model animals). To be noted: 0 to 72 hr. On the procedure:
as §1
Next, the body weight of the animals was measured before antibody administration (pre) and at 0, 9, 24, 33, 48, 57, and 72 hours (hr) after antibody administration. The movement, muscle strength, and grip strength of the animals were evaluated by the following tests.
(§3) 5-week-old female rats (n=24, LEW/CrlCrlj, 4 weeks old when carried in, Jackson Laboratory Japan) were divided into four groups (Group A, Group B, Group C, and Group D) using body weight measurement results as indexes. Vehicle was administered to Group A, and the test compound MuSK7-pal dissolved in vehicle was administered intravenously to each of Group B (0.5 mg/kg), Group C (0.25 mg/kg), and Group D (0.1 mg/kg) (Day 0). Two hours after intravenous administration, an anti-nicotinic acetylcholine receptor monoclonal antibody (mAb35, National Hospital Organization Nagasaki Kawatana Medical Center) dissolved in PBS (pH 7.4) as a drug for inducing the pathology of myasthenia gravis was administered intraperitoneally to all animals at 200 µg/rat (Day 0).
as §2

The subject of a further test is rat PTMG model. Briefly: Rat PTMG myasthenia gravis model induced by anti-acetylcholine receptor monoclonal antibody (mAb35). The note with it: 0-72 hr after antibody. On the procedure: as §1
Next, the body weight of the animals was measured before antibody administration (pre) and at 0, 9, 24, 33, 48, 57, and 72 hours (hr) after antibody administration. The movement, muscle strength, and grip strength of the animals were evaluated by the following tests. […]
as §3
The movement of the animals was evaluated at each time point of 9, 24, 33, 48, 57, and 72 hours (hr) after antibody administration according to six-level evaluation criteria (Score). The evaluation criteria were the same as those in (1) B above. […]

The test system of test [3] is rat PTMG model using anti-acetylcholine receptor monoclonal antibody (mAb35). Briefly: Grip Strength Test in rat PTMG model. The note with it: approx. 30 hours after antibody. The method, then:
as §1
Approximately 30 hours after antibody administration, the muscle strength of the rats was measured using a mouse grip strength meter (GRIP STRENGTH METER FOR MICE, MODEL MK-380M, Muromachi Kikai Co., Ltd.). Specifically, the rats were left for 15 minutes or longer, and after confirming that they were in a resting state, the forelimbs of the rats were made to grasp the mouse grip strength meter. Next, the bodies of the rats were pulled, and the scale of the grip strength meter at the point when the rats released the wire mesh was read (first measurement). The above procedure was repeated once more (second measurement). When the difference between the first and second measurement values was 20% or less, the average value thereof was used as the measurement value. When the difference was 20% or more, the above procedure was further performed once more (third measurement), and the average value of two measurements with close values among the three measurements was used as the measurement value.
as §3
The Grip Strength Test was performed approximately 30 hours after antibody administration. The implementation procedure was the same as that in (1) B above.
as §2
The Grip Strength Test was performed approximately 30 hours after antibody administration. The implementation procedure was the same as that in Example 3(1) B.

Setting [4] is: 0.1 mg/kg intravenously (Group D, Example 3(2)).
Setting [5] is: 0.25 mg/kg intravenously (Group C, Example 3(2)).
Setting [6] is: 0.5 mg/kg intravenously (Group B, Example 3(2)).

Bridge positions count the residues as written; N and C are the ends. Square brackets hold non-standard residues; d marks the D form. Peptide text beside a SMILES is read from it. I, II: the chains in the order shown. * marks the point of attachment. Palmitoyl = CCCCCCCCCCCCCCCC(=O)*; PEG3 = NCCOCCOCCOCCC(=O)O; Dap = NC[C@H](N)C(=O)O

In the case of `CCCCCCCCCCCCCCCC(=O)NCCCC[C@H](NC(=O)[C@H](CNC(=O)CCOCCOCCOCCNC(=O)CNC(=O)[C@@H]1CSCC(=O)N[C@H](Cc2ccc(O)cc2)C(=O)N2CCC[C@H]2C(=O)N[C@@H](CO)C(=O)N[C@@H](Cc2ccc(O)cc2)C(=O)N[C@@H](Cc2c[nH]cn2)C(=O)N[C@@H]([C@@H](C)O)C(=O)N[C@@H](CC(N)=O)C(=O)N[C@@H](C(C)C)C(=O)N[C@@H](C(C)C)C(=O)N[C@@H](C)C(=O)N[C@@H](CO)C(=O)N[C@@H](CC(C)C)C(=O)N[C@@H](CCCCN)C(=O)N[C@@H](CCCNC(=N)N)C(=O)N1)NC(=O)CCOCCOCCOCCNC(=O)CNC(=O)[C@@H]1CSCC(=O)N[C@H](Cc2ccc(O)cc2)C(=O)N2CCC[C@H]2C(=O)N[C@@H](CO)C(=O)N[C@@H](Cc2ccc(O)cc2)C(=O)N[C@@H](Cc2c[nH]cn2)C(=O)N[C@@H]([C@@H](C)O)C(=O)N[C@@H](CC(N)=O)C(=O)N[C@@H](C(C)C)C(=O)N[C@@H](C(C)C)C(=O)N[C@@H](C)C(=O)N[C@@H](CO)C(=O)N[C@@H](CC(C)C)C(=O)N[C@@H](CCCCN)C(=O)N[C@@H](CCCNC(=N)N)C(=O)N1)C(N)=O` [MuSK7-pal] (I: {CH2CO}-[dY]PSYHTNVVASLKRCG[PEG3][Dap]K(Palmitoyl)-NH2 / II: {CH2CO}-[dY]PSYHTNVVASLKRCG[PEG3]; amide I:18-II:C; thioether I:N-I:15, II:N-II:15), the “mean latency to fall” value amounted to 25.3 s in test [1] (setting [4]); 32.3 s in test [1] (setting [5]); 11.3 s in test [1] (setting [6]); 69.6 s in test [1] (1 mg/kg intravenously (Group D, Example 3(1)), max 120 seconds); 29.2 s in test [1] (2 mg/kg intravenously (Group C, Example 3(1)), max 120 seconds); 17.6 s in test [1] (3 mg/kg intravenously (Group B, Example 3(1)), max 120 seconds). Besides, the body weight entry in test [2] (0.1 mg/kg intravenously 2 h before mAb35 (Group D, Example 3(2))) is on record as “milder than that in Group A”; in test [2] (0.25 mg/kg intravenously 2 h before mAb35 (Group C, Example 3(2))) it was “milder than that in Group A”; in test [2] (0.5 mg/kg intravenously 2 h before mAb35 (Group B, Example 3(2))), “milder than that in Group A”; in test [2] (1 mg/kg intravenously 2 h before mAb35 (Group D, Example 3(1))), “almost no significant decrease in body weight”; in test [2] (2 mg/kg intravenously 2 h before mAb35 (Group C, Example 3(1))) it was “milder than that in Group A”; in test [2] (3 mg/kg intravenously 2 h before mAb35 (Group B, Example 3(1))), “milder than that in Group A”. In addition, the body weight change result is “the degree of decrease in body weight was milder than that in Group A” in the test with rat PTMG model (0.1 mg/kg intravenous (Group D, low-dose study)); “the degree of decrease in body weight was milder than that in Group A” in the test with rat PTMG model (0.25 mg/kg intravenous (Group C, low-dose study)); “the degree of decrease in body weight was milder than that in Group A” with rat PTMG model (0.5 mg/kg intravenous (Group B, low-dose study)); “the degree of decrease in body weight was milder than that in Group A” in the test on rat PTMG model (2 mg/kg intravenous (Group C, high-dose study)); “the degree of decrease in body weight was milder than that in Group A” in the test with rat PTMG model (3 mg/kg intravenous (Group B, high-dose study)). In addition, the grip strength in test [3] (setting [4]) came to 452 g; in test [3] (setting [5]) it was 476 g; in test [3] (setting [6]), 461 g; in test [3] (1 mg/kg intravenously (Group D, Example 3(1))), 577 g; in test [3] (2 mg/kg intravenously (Group C, Example 3(1))), 474 g; in test [3] (3 mg/kg intravenously (Group B, Example 3(1))) it was 467 g.
